target: T1, PDE4B2 (Homo sapiens, UniProt Q07343); assay: In vitro PDE4B2 enzyme inhibitory activity (AMP-Glo); format: biochemical; settings: PDE4B2 enzyme inhibition; read-out: PDE4B2 IC50
T1 construct: purchased BPS bioscience
T1 sequence (Q07343 1-564 isoform Q07343-2): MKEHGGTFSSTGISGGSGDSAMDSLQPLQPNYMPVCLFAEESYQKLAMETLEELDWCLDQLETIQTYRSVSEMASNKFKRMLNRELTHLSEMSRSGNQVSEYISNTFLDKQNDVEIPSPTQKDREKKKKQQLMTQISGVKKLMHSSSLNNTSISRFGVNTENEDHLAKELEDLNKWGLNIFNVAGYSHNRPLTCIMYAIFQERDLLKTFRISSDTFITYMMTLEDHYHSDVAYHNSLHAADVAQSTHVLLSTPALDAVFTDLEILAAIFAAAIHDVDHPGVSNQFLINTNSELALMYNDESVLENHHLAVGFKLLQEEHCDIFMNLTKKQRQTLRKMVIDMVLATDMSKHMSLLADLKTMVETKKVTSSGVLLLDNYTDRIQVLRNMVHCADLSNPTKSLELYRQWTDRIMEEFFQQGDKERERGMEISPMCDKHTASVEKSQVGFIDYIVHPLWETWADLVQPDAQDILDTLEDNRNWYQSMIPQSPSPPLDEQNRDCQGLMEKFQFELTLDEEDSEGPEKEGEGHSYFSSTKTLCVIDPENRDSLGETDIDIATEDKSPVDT
Protocol: 2.1.1 Preparing stock solutions of compounds in DMSO: Compound powders were dissolved in 100% DMSO to produce 10 mM stock solutions, and oscillated in a shaker until the compounds were completely dissolved.
2.1.3 Preparing working stock solutions: a) A solution of Roflumilast (reference compound) in DMSO was diluted to 60 μM, and then serially diluted 4-fold into 10 concentration gradients. B) The solutions of the test compounds in DMSO were diluted to 200 μM, and then serially diluted 3-fold. C) A 200× positive control (60 μM Roflumilast) and a 200× vehicle control (100% DMSO) were prepared. D) The assay plate was centrifuged at 1000 rpm for 1 minute.
(1) 20 nL of compound dilution solutions were transferred with Echo 550 into each well of the assay plate.
(2) The assay plate was sealed and centrifuged at 1000 rpm for 1 minute.
(3) 2×PDE4B2/PDE4D2 was prepared in an ice-cold PDE assay buffer.
(4) 2 μL of 2×PDE4B2/PDE4D2 was added to each well of the assay plate prepared in step 2.
(5) The assay plate was sealed and allowed to equilibrate at room temperature for 10 minutes.
(6) 2× Cyclic-3′,5′-AMP was prepared in a PDE assay buffer.
7) 2 μL of 2× Cyclic-3′,5′-AMP (prepared in step 6) was added to each well of the assay plate (prepared in step 5) to initiate the reaction. The plate was incubated at room temperature for 60 minutes.
8) 4 μL AMP-Glo Reagent I was added, and the plate was incubated at room temperature for 60 minutes.
9) 8 μL AMP detection reagent was added. The plate was incubated at room temperature for 60 minutes.
10) The RLU signal was read on an Envision 2105 plate reader.

[O-][S+]1CCc2nc(N3CC(O)(c4ccc(Cl)cc4)C3)nc(NC3(CO)CCC3)c21 (racemic) [Compound 1, (R/S)-2-(3-(4-chlorophenyl)-3-hydroxyazetidin-1-yl)-4-((1-(hydroxymethyl)cyclobutyl)amino)-6,7-dihydrothieno[3,2-d]pyrimidine 5-oxide] and COc1ccc(C2(O)CN(c3nc4c(c(NC5(CO)CCC5)n3)[S+]([O-])CC4)C2)cc1 (racemic) [Compound 2, (R/S)-2-(3-hydroxy-3-(4-methoxyphenyl)azetidin-1-yl)-4-((1-(hydroxymethyl)cyclobutyl)amino)-6,7-dihydrothieno[3,2-d]pyrimidine 5-oxide] fall in the same range of IC50: 2 to 5 nM for the first, 2 to 5 nM for the second.

COc1cc(C2(O)CN(c3nc4c(c(NC5(CO)CCC5)n3)[S+]([O-])CC4)C2)ccc1Cl (racemic) [Compound 3, (R/S)-2-(3-(4-chloro-3-methoxyphenyl)-3-hydroxyazetidin-1-yl)-4-((1-(hydroxymethyl)cyclobutyl)amino)-6,7-dihydrothieno[3,2-d]pyrimidine 5-oxide] and COc1ccc(C2(O)CN(c3nc4c(c(NC5(CO)CCC5)n3)[S+]([O-])CC4)C2)cc1Cl (racemic) [Compound 4, (R/S)-2-(3-(3-chloro-4-methoxyphenyl)-3-hydroxyazetidin-1-yl)-4-((1-(hydroxymethyl)cyclobutyl)amino)-6,7-dihydrothieno[3,2-d]pyrimidine 5-oxide] cannot be ordered by IC50: at most 2 nM for the first, 2 to 5 nM for the second.

[O-][S+]1CCc2nc(N3CC(O)(c4ccc(C(F)(F)F)cc4)C3)nc(NC3(CO)CCC3)c21 (racemic) [Compound 7, (R/S)-2-(3-hydroxy-3-(4-(trifluoromethyl)phenyl)azetidin-1-yl)-4-((1-(hydroxymethyl)cyclobutyl)amino)-6,7-dihydrothieno[3,2-d]pyrimidine 5-oxide] and [O-][S+]1CCc2nc(N3CC(O)(c4ccc(Cl)c(F)c4)C3)nc(NC3(CO)CCC3)c21 (racemic) [Compound 80, (R/S)-2-(3-(4-chloro-3-fluorophenyl)-3-hydroxyazetidin-1-yl)-4-((1-(hydroxymethyl)cyclobutyl)amino)-6,7-dihydrothieno[3,2-d]pyrimidine 5-oxide] fall in the same range of IC50: 2 to 5 nM for the first, 2 to 5 nM for the second.

COc1ccc(C2(O)CN(c3nc4c(c(Nc5ccc(CC(=O)O)cc5)n3)[S+]([O-])CC4)C2)cc1Cl (racemic) [Compound 8, (R/S)-2-(4-((2-(3-(3-chloro-4-methoxyphenyl)-3-hydroxyazetidin-1-yl)-5-oxido-6,7-dihydrothieno[3,2-d]pyrimidin-4-yl)amino)phenyl)acetic acid] and COc1cc(C2(O)CN(c3nc4c(c(NC5CCOCC5)n3)[S+]([O-])CC4)C2)ccc1Cl (racemic) [Compound 81, (R/S)-2-(3-(4-chloro-3-methoxyphenyl)-3-hydroxyazetidin-1-yl)-4-((tetrahydro-2H-pyran-4-yl)amino)-6,7-dihydrothieno[3,2-d]pyrimidine 5-oxide] fall in the same range of IC50: 2 to 5 nM for the first, 2 to 5 nM for the second.

[O-][S+]1CCc2nc(N3CC=C(c4ccc(OC(F)F)cc4)C3)nc(NC3(CO)CCC3)c21 (racemic) [Compound 14, (R/S)-2-(3-(4-(difluoromethoxy)phenyl)-2,5-dihydro-1H-pyrrol-1-yl)-4-((1-(hydroxymethyl)cyclobutyl)amino)-6,7-dihydrothieno[3,2-d]pyrimidine 5-oxide] and COc1ccc2c(c1)CN(c1nc3c(c(NC4(CO)CCC4)n1)[S+]([O-])CC3)C2 (racemic) [Compound 26, (R/S)-4-((1-(hydroxymethyl)cyclobutyl)amino)-2-(5-methoxyisoindolin-2-yl)-6,7-dihydrothieno[3,2-d]pyrimidine 5-oxide] fall in the same range of IC50: 2 to 5 nM for the first, 2 to 5 nM for the second.

[O-][S+]1CCc2nc(C3=CCN(c4ncc(Cl)cn4)CC3)nc(NC3(CO)CCC3)c21 (racemic) [Compound 16, (R/S)-2-(1-(5-chloropyrimidin-2-yl)-1,2,3,6-tetrahydropyridin-4-yl)-4-((1-(hydroxymethyl)cyclobutyl)amino)-6,7-dihydrothieno[3,2-d]pyrimidine 5-oxide] and COc1ccc2c(c1Cl)CN(c1nc3c(c(NC4(CO)CCC4)n1)[S+]([O-])CC3)C2 (racemic) [Compound 35, (R/S)-2-(4-chloro-5-methoxyisoindolin-2-yl)-4-((1-(hydroxymethyl)cyclobutyl)amino)-6,7-dihydrothieno[3,2-d]pyrimidine 5-oxide] fall in the same range of IC50: 2 to 5 nM for the first, 2 to 5 nM for the second.

N#Cc1ccc2c(c1)CN(c1nc3c(c(NC4(CO)CCC4)n1)[S+]([O-])CC3)C2 (racemic) [Compound 27, (R/S)-2-(4-((1-(hydroxymethyl)cyclobutyl)amino)-5-oxido-6,7-dihydrothieno[3,2-d]pyrimidin-2-yl)isoindoline-5-carbonitrile] and CC(C)(O)c1ccc2c(c1)CN(c1nc3c(c(NC4(CO)CCC4)n1)[S+]([O-])CC3)C2 (racemic) [Compound 29, (R/S)-4-((1-(hydroxymethyl)cyclobutyl)amino)-2-(5-(2-hydroxypropan-2-yl)isoindolin-2-yl)-6,7-dihydrothieno[3,2-d]pyrimidine 5-oxide] cannot be ordered by IC50: 2 to 5 nM for the first, at most 2 nM for the second.

CS(=O)(=O)Nc1ccc2c(c1)CN(c1nc3c(c(NC4(CO)CCC4)n1)[S+]([O-])CC3)C2 (racemic) [Compound 31, (R/S)—N-(2-(4-((1-(hydroxymethyl)cyclobutyl)amino)-5-oxido-6,7-dihydrothieno[3,2-d]pyrimidin-2-yl)isoindolin-5-yl)methanesulfonamide] and COC1(c2ccc(Cl)c(F)c2)CN(c2nc3c(c(NC4(CO)CCC4)n2)[S+]([O-])CC3)C1 (racemic) [Compound 82, (R/S)-2-(3-(4-chloro-3-fluorophenyl)-3-methoxyazetidin-1-yl)-4-((1-(hydroxymethyl)cyclobutyl)amino)-6,7-dihydrothieno[3,2-d]pyrimidine 5-oxide] cannot be ordered by IC50: 2 to 5 nM for the first, at most 2 nM for the second.

COc1cc(C2(OC)CN(c3nc4c(c(NC5(CO)CCC5)n3)[S+]([O-])CC4)C2)ccc1Cl (racemic) [Compound 79, (R/S)-2-(3-(4-chloro-3-methoxyphenyl)-3-methoxyazetidin-1-yl)-4-((1-(hydroxymethyl)cyclobutyl)amino)-6,7-dihydrothieno[3,2-d]pyrimidine 5-oxide] and COC1(c2ccc(Cl)cc2)CN(c2nc3c(c(NC4(CO)CCC4)n2)[S+]([O-])CC3)C1 (racemic) [Compound 83, (R/S)-2-(3-(4-chlorophenyl)-3-methoxyazetidin-1-yl)-4-((1-(hydroxymethyl)cyclobutyl)amino)-6,7-dihydrothieno[3,2-d]pyrimidine 5-oxide] cannot be ordered by IC50: at most 2 nM for the first, at most 2 nM for the second.

CC(C)(O)c1ccc2c(c1)CN(c1nc3c(c(NC4CCOCC4)n1)[S+]([O-])CC3)C2 (racemic) [Compound 84, (R/S)-2-(5-(2-hydroxypropan-2-yl)isoindolin-2-yl)-4-((tetrahydro-2H-pyran-4-yl)amino)-6,7-dihydrothieno[3,2-d]pyrimidine 5-oxide] and [O-][S+]1CCc2nc(N3Cc4ccc(Cl)cc4C3)nc(NC3CCOCC3)c21 (racemic) [Compound 85, (R/S)-2-(5-chloroisoindolin-2-yl)-4-((tetrahydro-2H-pyran-4-yl)amino)-6,7-dihydrothieno[3,2-d]pyrimidine 5-oxide] cannot be ordered by IC50: at most 2 nM for the first, at most 2 nM for the second.

same assay, conditions: read-out: IC50 values of PDE4B2 enzyme inhibition

COc1cc(C2(OC)CN(c3nc4c(c(NC5(CO)CCC5)n3)[S+]([O-])CC4)C2)ccc1Cl (racemic) [Compound 79, (R/S)-2-(3-(4-chloro-3-methoxyphenyl)-3-methoxyazetidin-1-yl)-4-((1-(hydroxymethyl)cyclobutyl)amino)-6,7-dihydrothieno[3,2-d]pyrimidine 5-oxide] and COC1(c2ccc(Cl)c(F)c2)CN(c2nc3c(c(NC4(CO)CCC4)n2)[S+]([O-])CC3)C1 (racemic) [Compound 82, (R/S)-2-(3-(4-chloro-3-fluorophenyl)-3-methoxyazetidin-1-yl)-4-((1-(hydroxymethyl)cyclobutyl)amino)-6,7-dihydrothieno[3,2-d]pyrimidine 5-oxide] cannot be ordered by IC50: under 1 nM for the first, under 1 nM for the second.

COC1(c2ccc(Cl)cc2)CN(c2nc3c(c(NC4(CO)CCC4)n2)[S+]([O-])CC3)C1 (racemic) [Compound 83, (R/S)-2-(3-(4-chlorophenyl)-3-methoxyazetidin-1-yl)-4-((1-(hydroxymethyl)cyclobutyl)amino)-6,7-dihydrothieno[3,2-d]pyrimidine 5-oxide] gave an IC50 of under 1 nM.

Source: patent US20260242393A1, “Preparation Method for and Use of Dihydrothienopyrimidine Derivative” (Innovstone Therapeutics Limited, priority 2023, published 2026)
